Data from PubChem BioAssay AID330 (DTP/NCI, 2004).
Several values for one entry are separate records, joined by “and”; a condition that tells them apart may be missing. Equal values may be shown once. Toxic doses and inconclusive results are not listed. How the source made its calls: active means survival T/C of 150% or more; inactive means T/C below 125% in these data.

Test system: P388 leukemia ip, CD2F1 mice, survival T/C
Test: NCI In Vivo Anticancer Drug Screen. Data for tumor model P388 Leukemia (intraperitoneal) in CD2F1 (CDF1) mice
Conditions: endpoint: median survival time, higher = longer survival
In short: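 Mice carrying the transplanted tumor received test compound or vehicle. Survival was recorded in each group, and the value is the treated-group measurement divided by that of the vehicle-treated control group.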

[1] = dose: 50.0 mg/kg/injection, schedule: Q01DX009 (ip), vehicle: Klucel (hydroxypropylcellulose) (HPC)
[2] = dose: 100.0 mg/kg/injection, schedule: Q01DX009 (ip), vehicle: Klucel (hydroxypropylcellulose) (HPC)
[3] = dose: 50.0 mg/kg/injection, schedule: Q01DX009 (ip), vehicle: saline with Tween-80
[4] = dose: 100.0 mg/kg/injection, schedule: Q01DX009 (ip), vehicle: saline with Tween-80
[5] = dose: 200.0 mg/kg/injection, schedule: Q01DX009 (ip), vehicle: saline with Tween-80
[6] = dose: 60.0 mg/kg/injection, schedule: Q01DX005 (ip), vehicle: saline with Tween-80
[7] = dose: 120.0 mg/kg/injection, schedule: Q01DX005 (ip), vehicle: saline with Tween-80
[8] = dose: 240.0 mg/kg/injection, schedule: Q01DX005 (ip), vehicle: saline with Tween-80

Measured: T/C

Cc1ccc(NC(=S)SCc2ccc3c(c2)OCO3)cc1Br
inactive: dose: 12.5 mg/kg/injection, schedule: Q01DX009 (ip), vehicle: Klucel (hydroxypropylcellulose) (HPC) 122 % of control | dose: 25.0 mg/kg/injection, schedule: Q01DX009 (ip), vehicle: Klucel (hydroxypropylcellulose) (HPC) 102 % of control | [1] 120 % of control | dose: 50.0 mg/kg/injection, schedule: Q01DX009 (ip), vehicle: suspension in saline 104 % of control | [2] 115 % of control | dose: 100.0 mg/kg/injection, schedule: Q01DX009 (ip), vehicle: suspension in saline 111 % of control | dose: 200.0 mg/kg/injection, schedule: Q01DX009 (ip), vehicle: Klucel (hydroxypropylcellulose) (HPC) 116 % of control | dose: 200.0 mg/kg/injection, schedule: Q01DX009 (ip), vehicle: suspension in saline 104 % of control

CCOC(=O)c1[nH]cnc1/N=N/c1nc(O)c(C#N)[nH]1
inactive: dose: 60.0 mg/kg/injection, schedule: Q01DX005 (ip), vehicle: suspension in saline 97 % of control | dose: 120.0 mg/kg/injection, schedule: Q01DX005 (ip), vehicle: suspension in saline 100 % of control | dose: 240.0 mg/kg/injection, schedule: Q01DX005 (ip), vehicle: suspension in saline 100 % of control

O=c1c(N(CCO)CCO)cn(Cc2ccccc2)c(=O)n1Cc1ccccc1
inactive: dose: 25.0 mg/kg/injection, schedule: Q01DX005 (ip), vehicle: Klucel (hydroxypropylcellulose) (HPC) 100 % of control | dose: 50.0 mg/kg/injection, schedule: Q01DX005 (ip), vehicle: Klucel (hydroxypropylcellulose) (HPC) 102 % of control | dose: 100.0 mg/kg/injection, schedule: Q01DX005 (ip), vehicle: Klucel (hydroxypropylcellulose) (HPC) 103 % of control | dose: 200.0 mg/kg/injection, schedule: Q01DX005 (ip), vehicle: Klucel (hydroxypropylcellulose) (HPC) 97 % of control

COc1ccc(Br)cc1
inactive: [3] 104 % of control | dose: 50.0 mg/kg/injection, schedule: Q04DX003 (ip), vehicle: saline 100 % of control | [4] 118 % of control | dose: 100.0 mg/kg/injection, schedule: Q04DX003 (ip), vehicle: saline 105 % of control | [5] 109 % of control | dose: 200.0 mg/kg/injection, schedule: Q04DX003 (ip), vehicle: saline 110 % of control

O=C(/C(=C(/[O-])C(F)(F)F)[n+]1cccc2ccccc21)C(F)(F)F
inactive: [6] 104 % of control | [7] 91 % of control | [8] 99 % of control

NC1=NC2C(Cl)=CC=CC2S1 (stereo unspecified)
inactive: [1] 109 % of control | [2] 107 % of control

CC(C)(C)/C=C/N=NNc1ccccc1C(=O)NC(C)(C)C
inactive: dose: 15.0 mg/kg/injection, schedule: Q01DX005 (ip), vehicle: Klucel + Tween-80 95 % of control | dose: 30.0 mg/kg/injection, schedule: Q01DX005 (ip), vehicle: Klucel + Tween-80 101 % of control | dose: 60.0 mg/kg/injection, schedule: Q01DX005 (ip), vehicle: Klucel + Tween-80 87 % of control and 89 % of control

COc1ccc(CCNC(=O)CC2CCN(C)CC2)cc1OC
inactive: dose: 100.0 mg/kg/injection, schedule: Q04DX003 (ip), vehicle: saline with Tween-80 101 % of control | dose: 200.0 mg/kg/injection, schedule: Q04DX003 (ip), vehicle: saline with Tween-80 100 % of control

O=C(Nc1ccccc1)OCc1ccc(OCc2ccccc2)cc1
inactive: dose: 25.0 mg/kg/injection, schedule: Q01DX009 (ip), vehicle: saline with Tween-80 107 % of control and 94 % of control | [3] 110 % of control and 95 % of control | [4] 104 % of control and 89 % of control | [5] 95 % of control

COC(=O)C1(c2ccc(OC)cc2)NC(c2ccccc2)C2C(=O)N(c3ccc(OC)cc3)C(=O)C21 (stereo unspecified)
inactive: [6] 95 % of control | [7] 96 % of control | [8] 89 % of control

[O-][n+]1ccc(Br)c(/C=C/c2ccccc2)c1
inactive: dose: 30.0 mg/kg/injection, schedule: Q01DX005 (ip), vehicle: saline with Tween-80 101 % of control | [6] 101 % of control | [7] 102 % of control | [8] 101 % of control

C=C1C(=O)O[C@@H]2[C@H]3C(C)=CC[C@@H](OC(=O)/C(C)=C/C)[C@]3(C)[C@H](O)C[C@@H]12
inactive: dose: 7.0 mg/kg/injection, schedule: Q01DX005 (ip), vehicle: Klucel (hydroxypropylcellulose) (HPC) 100 % of control | dose: 14.0 mg/kg/injection, schedule: Q01DX005 (ip), vehicle: Klucel (hydroxypropylcellulose) (HPC) 100 % of control | dose: 28.0 mg/kg/injection, schedule: Q01DX005 (ip), vehicle: Klucel (hydroxypropylcellulose) (HPC) 106 % of control | dose: 56.0 mg/kg/injection, schedule: Q01DX005 (ip), vehicle: Klucel (hydroxypropylcellulose) (HPC) 105 % of control
